Earlier results in patent US8946148B2 (Ambrx, Inc., priority 2007, dated 2015).

Test system: patients with NIDDM and impaired glucose tolerance

Cc1c(C)c2c(c(C)c1O)CCC(C)(COc1ccc(CC3SC(=O)NC3=O)cc1)O2 (stereo not shown) [Troglitazone]
effect on insulin resistance: reverse insulin resistance
